Experimental data published in ChEMBL document CHEMBL1129391, “Potent and selective thrombin inhibitors incorporating the constrained arginine mimic l-3-piperidyl(N-guanidino)alanine at P1” (J Med Chem, 1996).

Columns and labels:
Prothrombin = Prothrombin (Homo sapiens, UniProt P00734); experiment: Compound was evaluated for inhibition of amidolytic activity for chromogenic substrate thrombin […].
Trypsin II = target: T1, Trypsin II (Bos taurus, UniProt Q29463); experiment: Compound was evaluated for inhibition of amidolytic activity for chromogenic substrate trypsin
T1 sequence (Q29463 whole entry): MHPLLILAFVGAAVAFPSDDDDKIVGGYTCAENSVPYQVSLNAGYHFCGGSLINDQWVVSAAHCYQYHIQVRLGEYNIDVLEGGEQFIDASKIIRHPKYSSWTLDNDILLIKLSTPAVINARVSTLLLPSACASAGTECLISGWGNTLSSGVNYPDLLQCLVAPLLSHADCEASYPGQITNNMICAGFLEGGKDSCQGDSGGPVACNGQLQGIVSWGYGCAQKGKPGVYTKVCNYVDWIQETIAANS

Coagulation factor X = Coagulation factor X (Homo sapiens, UniProt P00742); experiment: Compound was evaluated for inhibition of amidolytic activity for chromogenic substrate Coagulation factor X
Chain of Coagulation factor X (P00742 41-179 limits assumed): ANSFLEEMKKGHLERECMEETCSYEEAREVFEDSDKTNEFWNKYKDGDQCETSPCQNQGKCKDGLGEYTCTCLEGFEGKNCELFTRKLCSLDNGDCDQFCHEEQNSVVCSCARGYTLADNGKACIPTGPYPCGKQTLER
Chain of Coagulation factor X (P00742 235-488 limits assumed): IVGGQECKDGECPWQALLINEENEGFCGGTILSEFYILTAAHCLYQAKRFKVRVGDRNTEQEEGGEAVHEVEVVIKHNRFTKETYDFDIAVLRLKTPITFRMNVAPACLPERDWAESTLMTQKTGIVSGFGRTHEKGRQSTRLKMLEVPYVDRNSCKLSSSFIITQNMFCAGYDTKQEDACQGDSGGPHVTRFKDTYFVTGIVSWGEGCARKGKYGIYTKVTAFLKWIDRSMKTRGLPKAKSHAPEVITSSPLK

## N=C(N)N1CCC[C@H](C[C@@H](C=O)NC(=O)CN2CCC[C@H](NS(=O)(=O)Cc3ccccc3)C2=O)C1
Prothrombin
  IC50: 28.8 nM
Trypsin II
  IC50: 60700 nM
Coagulation factor X
  IC50: > 25000 nM

## CCCC(CCC)C(=O)N[C@@H](CC(=O)OC)C(=O)N1CCC[C@H]1C(=O)N[C@H](C=O)CCCNC(=N)N
Trypsin II
  IC50: 1.2 nM
Coagulation factor X
  IC50: 301 nM

## CCCC(CCC)C(=O)N[C@@H](CC(=O)OC)C(=O)N1CCC[C@H]1C(=O)N[C@H](C=O)CC1CCCN(C(=N)N)C1 (stereo in doubt; 4a)
Trypsin II
  IC50: 113 nM
Coagulation factor X
  IC50: > 2500 nM

## N=C(N)NCCC[C@@H](C=O)NC(=O)CN1CCCC[C@H](NS(=O)(=O)Cc2ccccc2)C1=O
Prothrombin
  IC50: 0.71 nM
Trypsin II
  IC50: 329 nM
Coagulation factor X
  IC50: 20.6 nM

## N=C(N)N1CCCC(C[C@@H](C=O)NC(=O)CN2CCCC[C@H](NS(=O)(=O)Cc3ccccc3)C2=O)C1 (stereo in doubt; 6b)
Trypsin II
  IC50: 45800 nM
Coagulation factor X
  IC50: > 25000 nM

## N=C(N)NCCC[C@@H](C=O)NC(=O)CN1CCC[C@H](NS(=O)(=O)Cc2ccccc2)C1=O
Prothrombin
  IC50: 12.4 nM
Trypsin II
  IC50: 1550 nM
Coagulation factor X
  IC50: > 2500 nM

## N=C(N)N1CCCC(C[C@@H](C=O)NC(=O)CN2CCCC[C@H](NS(=O)(=O)Cc3ccccc3)C2=O)C1 (stereo in doubt; 6a)
Trypsin II
  IC50: 15100 nM
Coagulation factor X
  IC50: > 2500 nM

## [H]/N=C(\N)N1CCC[C@@H](C[C@@H](C=O)NC(=O)CN2CCC[C@H](NS(=O)(=O)Cc3ccccc3)C2=O)C1
Prothrombin
  IC50: 0.67 nM
Trypsin II
  IC50: 68400 nM
Coagulation factor X
  IC50: > 25000 nM

## CCCC(CCC)C(=O)N[C@@H](CC(=O)OC)C(=O)N1CCC[C@H]1C(=O)N[C@H](C=O)CC1CCCN(C(=N)N)C1 (stereo in doubt; 4b)
Trypsin II
  IC50: 69.7 nM
Coagulation factor X
  IC50: > 2500 nM
